Three molecules from paper PMC3857281, “Molecular Mechanism of Inhibition of the Mitochondrial Carnitine/Acylcarnitine Transporter by Omeprazole Revealed by Proteoliposome Assay, Mutagenesis and Bioinformatics” (PLoS ONE, 2013) can be followed below.

What all share (type): biochemical
For experiment [1], the target named is T1, mitochondrial carnitine/acylcarnitine transporter (CACT) (Rattus norvegicus, UniProt P97521).
T1 construct: gene Slc25a20; recombinant WT rat CACT expressed in E. coli, reconstituted in liposomes
T1 sequence (P97521 2-301): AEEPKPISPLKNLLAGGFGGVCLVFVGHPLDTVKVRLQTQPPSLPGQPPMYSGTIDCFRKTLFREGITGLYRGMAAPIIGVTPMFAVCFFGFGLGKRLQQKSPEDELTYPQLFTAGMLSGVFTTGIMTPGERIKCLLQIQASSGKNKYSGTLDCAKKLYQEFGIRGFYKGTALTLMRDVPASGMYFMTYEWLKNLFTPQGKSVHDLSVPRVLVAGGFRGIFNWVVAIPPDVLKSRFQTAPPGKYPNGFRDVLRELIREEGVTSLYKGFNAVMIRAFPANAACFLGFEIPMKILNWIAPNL
In words: [3H]carnitine/carnitine antiport in proteoliposomes.

Experiment [2] addresses T2, mitochondrial carnitine/acylcarnitine transporter (CACT), C136S mutant (Rattus norvegicus, UniProt P97521, C136S).
T2 construct: gene Slc25a20; recombinant mutant rat CACT reconstituted in liposomes
T2 sequence (P97521 2-301 C136S): T1 sequence (P97521 2-301) with C135S
In words: […] inhibition of antiport after […] omeprazole and removal of unreacted compound.

The target in experiment [3] is T1, mitochondrial carnitine/acylcarnitine transporter (CACT). Nature of the experiment: [3H]carnitine/carnitine antiport in proteoliposomes; acid-activated omeprazole (non-activated compound inactive).
The target of experiment [4] is T3, mitochondrial carnitine/acylcarnitine transporter (CACT), C283A mutant (Rattus norvegicus, UniProt P97521, C283A).
T3 construct: gene Slc25a20; recombinant mutant rat CACT reconstituted in liposomes
T3 sequence (P97521 2-301 C283A): T1 sequence (P97521 2-301) with C282A
Nature of the experiment: […] inhibition of antiport after […] omeprazole and removal of unreacted compound.

Where a chain is given by its changes, count along the chain named.

Take `Cc1c(OCC(F)(F)F)ccnc1C[S+]([O-])c1nc2ccccc2[nH]1` (centres unmarked) [lansoprazole]: in experiment [1] (read-out: IC50), the IC50 stood at 80 µM. As for `COc1ccc2[nH]c([S+]([O-])Cc3ncc(C)c(OC)c3C)nc2c1` (centres unmarked) [omeprazole], the inhibition at 30 µM was 59% in experiment [2] and 53% in experiment [4]. In addition, in experiment [3], the IC50 was 5.4 µM. In experiment [1], `COc1ccnc(C[S+]([O-])c2nc3ccc(OC(F)F)cc3[nH]2)c1OC` (centres unmarked) [pantoprazole] returned an IC50 of 6.4 µM.

The term IC50 denotes the concentration needed to halve the response being measured. The inhibition is the relative decrease from the control value, in per cent.
